Experimental data as given in patent publication US10265307B2, “Thiazolecarboxamides and pyridinecarboxamide compounds useful as Pim kinase inhibitors” (Incyte Corporation, priority 2013, dated 2019).

Molecular target: Pim-1 (Homo sapiens (Human), UniProt P11309)
Assay: Pim-1 kinase assay
Format: biochemical
Details: 1 mM ATP; read-out: Pim1 IC50
Procedure: Supplementation of the STOP buffer with beads and stopping the reactions were done under reduced light. Prior to the stopping reactions STOP buffer with beads was pre-incubated for 1 h in the dark at room temperature. After stopping the reactions, plates were incubated for 1 h in the dark at room temperature before reading on a PHERAstar FS plate reader (BMG Labtech) under reduced light.

Sequence of Pim-1 (P11309 whole entry): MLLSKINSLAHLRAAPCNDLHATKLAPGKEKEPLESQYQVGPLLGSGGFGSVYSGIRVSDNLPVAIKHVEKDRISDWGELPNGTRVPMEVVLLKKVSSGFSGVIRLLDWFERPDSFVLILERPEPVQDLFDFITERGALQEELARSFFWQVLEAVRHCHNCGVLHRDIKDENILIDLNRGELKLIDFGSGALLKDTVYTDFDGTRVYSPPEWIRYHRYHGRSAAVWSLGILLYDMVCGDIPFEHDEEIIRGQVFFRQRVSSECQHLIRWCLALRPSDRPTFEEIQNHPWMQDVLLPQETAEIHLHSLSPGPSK

| IC50 [nM] | SMILES |
| --- | --- |
| ≤ 100 | COc1ccc(F)c(-c2nc(C(=O)Nc3cnc4c(c3N3CCC[C@H](N)C3)CCC4O)ccc2F)c1F (single isomer, unassigned) [55 (Diastereoisomer 1)] |
| ≤ 100 | COc1ccc(F)c(-c2nc(C(=O)Nc3cnc4c(c3N3CCC[C@H](N)C3)CCC4O)ccc2F)c1F (single isomer, unassigned) [55 (Diastereoisomer 2)] |
| ≤ 100 | COc1ccc(F)c(-c2nc(C(=O)Nc3cnc4c(c3N3C[C@H](C)C[C@H](N)C3)CCC4O)ccc2F)c1F (single isomer, unassigned) [56 (Diastereoisomer 1)] |
| ≤ 100 | COc1ccc(F)c(-c2nc(C(=O)Nc3cnc4c(c3N3C[C@H](C)C[C@H](N)C3)CCC4O)ccc2F)c1F (single isomer, unassigned) [56 (Diastereoisomer 2)] |
| ≤ 100 | C[C@@H]1C[C@H](N)CN(c2c(NC(=O)c3ccc(F)c(-c4c(F)cc([S+](C)[O-])cc4F)n3)cnc3c2CCC3O)C1 (single isomer, unassigned) [60 (Diastereoisomer 1)] |
| ≤ 100 | C[C@@H]1C[C@H](N)CN(c2c(NC(=O)c3ccc(F)c(-c4c(F)cc([S+](C)[O-])cc4F)n3)cnc3c2CCC3O)C1 (single isomer, unassigned) [60 (Diastereoisomer 2)] |
| ≤ 100 | CS(=O)(=O)c1cc(F)c(-c2nc(C(=O)Nc3cnc4c(c3N3CCC[C@H](N)C3)CCC4O)ccc2F)c(F)c1 (single isomer, unassigned) [61 (Diastereoisomer 1)] |
| ≤ 100 | CS(=O)(=O)c1cc(F)c(-c2nc(C(=O)Nc3cnc4c(c3N3CCC[C@H](N)C3)CCC4O)ccc2F)c(F)c1 (single isomer, unassigned) [61 (Diastereoisomer 2)] |

| SMILES | IC50 [nM] |
| --- | --- |
| COc1ccc(F)c(-c2nc(C(=O)Nc3cnc4c(c3N3CCC[C@H](N)C3)CCC4O)c(N)s2)c1F (single isomer, unassigned) [53 (Diastereoisomer 2)] | ≤ 100 |
| COc1ccc(F)c(-c2nc(C(=O)Nc3cnc4c(c3N3C[C@H](C)C[C@H](N)C3)CCC4O)c(N)s2)c1F (single isomer, unassigned) [54 (Diastereoisomer 1)] | ≤ 100 |
| COc1ccc(F)c(-c2nc(C(=O)Nc3cnc4c(c3N3C[C@H](C)C[C@H](N)C3)CCC4O)c(N)s2)c1F (single isomer, unassigned) [54 (Diastereoisomer 2)] | ≤ 100 |
| CSc1cc(F)c(-c2nc(C(=O)Nc3cnc4c(c3N3CCC[C@H](N)C3)CCC4O)ccc2F)c(F)c1 (single isomer, unassigned) [58 (Diastereoisomer 1)] | ≤ 100 |
| CSc1cc(F)c(-c2nc(C(=O)Nc3cnc4c(c3N3CCC[C@H](N)C3)CCC4O)ccc2F)c(F)c1 (single isomer, unassigned) [58 (Diastereoisomer 2)] | ≤ 100 |
| C[S+]([O-])c1cc(F)c(-c2nc(C(=O)Nc3cnc4c(c3N3CCC[C@H](N)C3)CCC4O)ccc2F)c(F)c1 (single isomer, unassigned) [59 (Diastereoisomer 1)] | ≤ 100 |
| C[S+]([O-])c1cc(F)c(-c2nc(C(=O)Nc3cnc4c(c3N3CCC[C@H](N)C3)CCC4O)ccc2F)c(F)c1 (single isomer, unassigned) [59 (Diastereoisomer 2)] | ≤ 100 |

Molecular target: Pim-2 (Homo sapiens (Human), UniProt Q9P1W9)
Sequence (Q9P1W9 whole entry): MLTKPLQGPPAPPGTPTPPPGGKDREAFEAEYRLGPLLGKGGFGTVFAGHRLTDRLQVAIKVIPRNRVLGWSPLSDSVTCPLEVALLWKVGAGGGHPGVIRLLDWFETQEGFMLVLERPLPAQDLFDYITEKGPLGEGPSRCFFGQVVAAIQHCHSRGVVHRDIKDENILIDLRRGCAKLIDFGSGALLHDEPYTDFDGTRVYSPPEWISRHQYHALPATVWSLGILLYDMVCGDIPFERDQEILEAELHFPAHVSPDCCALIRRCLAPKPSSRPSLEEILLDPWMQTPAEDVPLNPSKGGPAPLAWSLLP
Assay: Pim-2 kinase assay
Format: biochemical
Details: 1 mM ATP; read-out: Pim2 IC50
Procedure: Pim-2 kinase assay-20 μL reactions were run in white 384 well polystyrene plates dotted with 0.8 μL compound/DMSO in the assay buffer (50 mM Tris, pH 7.5, 0.01% Tween-20, 5 mM MgCl2, 0.01% BSA, 5 mM DTT), containing 0.05 μM Fluorescein-labeled CREBtide peptide substrate (Invitrogen PV3508), 1 mM ATP, and 1 nM enzyme (Invitrogen PV3649) for 2 h at 25° C. Reactions were stopped by addition of 10 μL TR-FRET Dilution Buffer (Invitrogen PV3574) with 30 mM EDTA and 1.5 nM LanthaScreen Tb-CREB pSer133 antibody (Invitrogen PV3566). After 30 min. incubation at room temperature, plates were read on a PHERAstar FS plate reader (BMG Labtech).
Although the above in vitro assays are conducted at 1 mM ATP compounds can also be evaluated for potency and in vitro activity against PIM targets utilizing Km conditions, where the concentration of ATP is set to the Km value and the assay is more sensitive to PIM inhibition activity.

| IC50 [nM] | SMILES |
| --- | --- |
| 100 to 1000 | COc1ccc(F)c(-c2nc(C(=O)Nc3cnc4c(c3N3CCC[C@H](N)C3)CCC4O)ccc2F)c1F (single isomer, unassigned) [55 (Diastereoisomer 1)] |
| ≤ 100 | COc1ccc(F)c(-c2nc(C(=O)Nc3cnc4c(c3N3CCC[C@H](N)C3)CCC4O)ccc2F)c1F (single isomer, unassigned) [55 (Diastereoisomer 2)] |
| ≤ 100 | COc1ccc(F)c(-c2nc(C(=O)Nc3cnc4c(c3N3C[C@H](C)C[C@H](N)C3)CCC4O)ccc2F)c1F (single isomer, unassigned) [56 (Diastereoisomer 1)] |
| ≤ 100 | COc1ccc(F)c(-c2nc(C(=O)Nc3cnc4c(c3N3C[C@H](C)C[C@H](N)C3)CCC4O)ccc2F)c1F (single isomer, unassigned) [56 (Diastereoisomer 2)] |
| 100 to 1000 | C[C@@H]1C[C@H](N)CN(c2c(NC(=O)c3ccc(F)c(-c4c(F)cc([S+](C)[O-])cc4F)n3)cnc3c2CCC3O)C1 (single isomer, unassigned) [60 (Diastereoisomer 1)] |
| 100 to 1000 | C[C@@H]1C[C@H](N)CN(c2c(NC(=O)c3ccc(F)c(-c4c(F)cc([S+](C)[O-])cc4F)n3)cnc3c2CCC3O)C1 (single isomer, unassigned) [60 (Diastereoisomer 2)] |
| > 2000 | CS(=O)(=O)c1cc(F)c(-c2nc(C(=O)Nc3cnc4c(c3N3CCC[C@H](N)C3)CCC4O)ccc2F)c(F)c1 (single isomer, unassigned) [61 (Diastereoisomer 1)] |
| 100 to 1000 | CS(=O)(=O)c1cc(F)c(-c2nc(C(=O)Nc3cnc4c(c3N3CCC[C@H](N)C3)CCC4O)ccc2F)c(F)c1 (single isomer, unassigned) [61 (Diastereoisomer 2)] |

| SMILES | IC50 [nM] |
| --- | --- |
| COc1ccc(F)c(-c2nc(C(=O)Nc3cnc4c(c3N3CCC[C@H](N)C3)CCC4O)c(N)s2)c1F (single isomer, unassigned) [53 (Diastereoisomer 2)] | ≤ 100 |
| COc1ccc(F)c(-c2nc(C(=O)Nc3cnc4c(c3N3C[C@H](C)C[C@H](N)C3)CCC4O)c(N)s2)c1F (single isomer, unassigned) [54 (Diastereoisomer 1)] | ≤ 100 |
| COc1ccc(F)c(-c2nc(C(=O)Nc3cnc4c(c3N3C[C@H](C)C[C@H](N)C3)CCC4O)c(N)s2)c1F (single isomer, unassigned) [54 (Diastereoisomer 2)] | ≤ 100 |
| CSc1cc(F)c(-c2nc(C(=O)Nc3cnc4c(c3N3CCC[C@H](N)C3)CCC4O)ccc2F)c(F)c1 (single isomer, unassigned) [58 (Diastereoisomer 1)] | 100 to 1000 |
| CSc1cc(F)c(-c2nc(C(=O)Nc3cnc4c(c3N3CCC[C@H](N)C3)CCC4O)ccc2F)c(F)c1 (single isomer, unassigned) [58 (Diastereoisomer 2)] | 100 to 1000 |
| C[S+]([O-])c1cc(F)c(-c2nc(C(=O)Nc3cnc4c(c3N3CCC[C@H](N)C3)CCC4O)ccc2F)c(F)c1 (single isomer, unassigned) [59 (Diastereoisomer 1)] | 100 to 1000 |
| C[S+]([O-])c1cc(F)c(-c2nc(C(=O)Nc3cnc4c(c3N3CCC[C@H](N)C3)CCC4O)ccc2F)c(F)c1 (single isomer, unassigned) [59 (Diastereoisomer 2)] | 100 to 1000 |

Molecular target: Pim-3 (Homo sapiens (Human), UniProt Q86V86)
Assay: Pim-3 kinase assay
Format: biochemical
Details: 1 mM ATP; read-out: Pim3 IC50
Procedure: Pim-1 and Pim-3 kinase assays-20 μL reactions were run in white 384 well polystyrene plates dotted with 0.8 μL compound/DMSO in the assay buffer (50 mM Tris, pH 7.5, 0.01% Tween-20, 5 mM MgCl2, 0.01% BSA, 5 mM DTT), containing 0.05 μM Biotin-labeled BAD peptide substrate (AnaSpec 62269), 1 mM ATP, and […] (Pim-1, Invitrogen PV3503) or […] (Pim-3, Millipore 14-738) enzyme for 1 h at 25° C. Reactions were stopped by addition of 10 μL STOP Buffer (150 mM Tris, pH=7.5, 150 mM NaCl, 75 mM EDTA, 0.01% Tween-20, 0.3% BSA) supplemented with Phospho-Bad (Ser112) Antibody (Cell Signaling 9291) diluted 666-fold, and Streptavidin donor beads (PerkinElmer 6760002) along with Protein-A acceptor beads (PerkinElmer 6760137) at 15 μg/mL each. Supplementation of the STOP buffer with beads and stopping the reactions were done under reduced light. Prior to the stopping reactions STOP buffer with beads was pre-incubated for 1 h in the dark at room temperature. After stopping the reactions, plates were incubated for 1 h in the dark at room temperature before reading on a PHERAstar FS plate reader (BMG Labtech) under reduced light.

| IC50 [nM] | SMILES |
| --- | --- |
| ≤ 100 | COc1ccc(F)c(-c2nc(C(=O)Nc3cnc4c(c3N3CCC[C@H](N)C3)CCC4O)ccc2F)c1F (single isomer, unassigned) [55 (Diastereoisomer 1)] |
| ≤ 100 | COc1ccc(F)c(-c2nc(C(=O)Nc3cnc4c(c3N3CCC[C@H](N)C3)CCC4O)ccc2F)c1F (single isomer, unassigned) [55 (Diastereoisomer 2)] |
| ≤ 100 | COc1ccc(F)c(-c2nc(C(=O)Nc3cnc4c(c3N3C[C@H](C)C[C@H](N)C3)CCC4O)ccc2F)c1F (single isomer, unassigned) [56 (Diastereoisomer 1)] |
| ≤ 100 | COc1ccc(F)c(-c2nc(C(=O)Nc3cnc4c(c3N3C[C@H](C)C[C@H](N)C3)CCC4O)ccc2F)c1F (single isomer, unassigned) [56 (Diastereoisomer 2)] |
| ≤ 100 | C[C@@H]1C[C@H](N)CN(c2c(NC(=O)c3ccc(F)c(-c4c(F)cc([S+](C)[O-])cc4F)n3)cnc3c2CCC3O)C1 (single isomer, unassigned) [60 (Diastereoisomer 1)] |
| ≤ 100 | C[C@@H]1C[C@H](N)CN(c2c(NC(=O)c3ccc(F)c(-c4c(F)cc([S+](C)[O-])cc4F)n3)cnc3c2CCC3O)C1 (single isomer, unassigned) [60 (Diastereoisomer 2)] |
| > 40 | CS(=O)(=O)c1cc(F)c(-c2nc(C(=O)Nc3cnc4c(c3N3CCC[C@H](N)C3)CCC4O)ccc2F)c(F)c1 (single isomer, unassigned) [61 (Diastereoisomer 1)] |
| ≤ 100 | CS(=O)(=O)c1cc(F)c(-c2nc(C(=O)Nc3cnc4c(c3N3CCC[C@H](N)C3)CCC4O)ccc2F)c(F)c1 (single isomer, unassigned) [61 (Diastereoisomer 2)] |

| SMILES | IC50 [nM] |
| --- | --- |
| COc1ccc(F)c(-c2nc(C(=O)Nc3cnc4c(c3N3CCC[C@H](N)C3)CCC4O)c(N)s2)c1F (single isomer, unassigned) [53 (Diastereoisomer 2)] | ≤ 100 |
| COc1ccc(F)c(-c2nc(C(=O)Nc3cnc4c(c3N3C[C@H](C)C[C@H](N)C3)CCC4O)c(N)s2)c1F (single isomer, unassigned) [54 (Diastereoisomer 1)] | ≤ 100 |
| COc1ccc(F)c(-c2nc(C(=O)Nc3cnc4c(c3N3C[C@H](C)C[C@H](N)C3)CCC4O)c(N)s2)c1F (single isomer, unassigned) [54 (Diastereoisomer 2)] | ≤ 100 |
| CSc1cc(F)c(-c2nc(C(=O)Nc3cnc4c(c3N3CCC[C@H](N)C3)CCC4O)ccc2F)c(F)c1 (single isomer, unassigned) [58 (Diastereoisomer 1)] | ≤ 100 |
| CSc1cc(F)c(-c2nc(C(=O)Nc3cnc4c(c3N3CCC[C@H](N)C3)CCC4O)ccc2F)c(F)c1 (single isomer, unassigned) [58 (Diastereoisomer 2)] | ≤ 100 |
| C[S+]([O-])c1cc(F)c(-c2nc(C(=O)Nc3cnc4c(c3N3CCC[C@H](N)C3)CCC4O)ccc2F)c(F)c1 (single isomer, unassigned) [59 (Diastereoisomer 1)] | ≤ 100 |
| C[S+]([O-])c1cc(F)c(-c2nc(C(=O)Nc3cnc4c(c3N3CCC[C@H](N)C3)CCC4O)ccc2F)c(F)c1 (single isomer, unassigned) [59 (Diastereoisomer 2)] | ≤ 100 |
